These results are taken from publication PMC12734540, “Unraveling the Potential Antiviral Activity of Isoxazoline-Carbocyclic Monophosphate Nucleotides Against Echovirus 11” (Microorganisms, 2025).

In data set [1] the test system is Echovirus 11. The experiment in a line: Post-infection CPE inhibition assay (crystal violet). It counts as cell-based, Echovirus 11 lineage 1. Conditions: for reduction in E11 infection / E11-induced CPE / EC50: MOI 0.025, 48 h, VERO 76 cells; for EC50: post-infection CPE inhibition.
Data set [2] concerns Echovirus 11. The experiment in a line: E11 RNA quantification in supernatant by qRT-PCR (dose response). It counts as cell-based, Echovirus 11 lineage 1. Conditions: 48 h; for reduction in extracellular viral RNA: supernatant, MOI 0.025, relative to untreated infected controls. The method, then:
(§1) Quantification of E11 genomic RNA was used as a hallmark of RNA virus replication within VERO 76-infected cells. The viral RNA was extracted from both cell culture supernatants and cell-associated fractions and quantified by one-step qRT-PCR using the automated Elite InGenius one-step RNA Enterovirus ELITe MGB® Kit, according to the manufacturer’s protocols. The experiment was performed in triplicate and RNA yield was reported as the mean value of a triplicate assay. To improve the accuracy of extracellular RNA quantification, particularly at 48 h post-infection (p.i.), a secondary analysis was performed using a two-step SYBR Green RT-qPCR. In particular, specific primers targeting the gene encoding the RNA-dependent RNA polymerase (RdRp) of E11 were designed using the Primer3 software (version 4.1.0). […]. Reverse transcription was carried out with a high-capacity cDNA synthesis kit, followed by quantitative PCR using SYBR Green Master Mix on a real-time PCR instrument. Data were analyzed using the ΔΔCt method, with normalization to the synthetic RNA spike-in.
The antiviral activity of nucleotides 4a and 4b against E11 replication was further evaluated by quantifying viral RNA in the supernatant of infected VERO 76 cells treated with increasing concentrations of each compound (6.25–50 μM for 4a; 6.25–100 μM for 4b). Following viral infection at a MOI of 0.025, cells were treated and incubated for 48 h. Viral genome copies were then assessed by qRT-PCR. Treatment with nucleotide 4a led to a dose-dependent reduction in extracellular viral RNA, with a 72% decrease observed at 25 μM and an 89% reduction at 50 μM relative to untreated infected controls.
On the technique in general: Real-time PCR tracks product formation cycle by cycle.

Data set [3] has as its system Echovirus 11. The experiment in a line: Time-course analysis of E11 RNA (cell monolayer and supernatant) by qRT-PCR. It counts as cell-based, Echovirus 11 lineage 1. Conditions: 25 µM, MOI 0.025; for reduction in intracellular viral RNA levels: cell monolayer. As for the experimental part: as §1
To evaluate the antiviral activity of compound 4a in VERO 76 cells over time, viral replication was assessed through quantification of viral genome copies via qRT-PCR in both the cell-associated and supernatant fractions, as well as by CPE analysis.
The amount of viral RNA measured in the intracellular and the supernatant fractions was compared against the control group, which consisted of VERO 76 cells that were infected but not subjected to 4a treatment. […] (Figure 5A). […] (Figure 5B).

In data set [4] the test system is Echovirus 11. The experiment in a line: Two-step SYBR Green RT-qPCR of RdRp gene RNA in supernatant. The class given is cell-based, Echovirus 11 lineage 1. Conditions: 25 µM, 48 h p.i., vs untreated controls, p = 0.0003. As for the experimental part:
as §1
To further corroborate and confirm the inhibitory effect of 4a on viral RNA release into the extracellular environment, an additional quantification was performed using a two-step SYBR Green-based RT-qPCR targeting the gene ecoding for the viral RdRp. […]

The next data set relates to VERO 76 cells. The settings on record: for cell viability: 25 µM.
The next data set concerns SARS-CoV-2 RdRp. Set-up: method as in PMID 37810686. Conditions: cited from earlier work.
For data set [5], the system named is Echovirus 11. The experiment in a line: Plaque assay of infectious titer. Conditions: 25 µM, supernatants collected at 48 h p.i., vs untreated control (CV).
Experimental: E11 infectious titers were determined by plaque assay. Briefly, 100 µL of culture supernatant from infected cells were serially diluted (10-1–10-4) in DMEM containing 1% FBS. VERO 76 cells were seeded in 24-well plates 24 h before infection to obtain 90% confluency. Cells were inoculated with 50 µl of each dilution and incubated for 1 h at 37 °C with gentle rocking. After adsorption, the inoculum was removed, and cells were overlaid with DMEM containing 1% FBS and carboxymethyl cellulose (CMC). Following 72 h incubation, monolayers were fixed, stained with crystal violet, and plaques were counted. Viral titers were expressed as plaque-forming units per milliliter (PFU/mL) according to:PFU/mL = (number of plaques)/(dilution factor × inoculated volume).
In data set [6] the test system is Echovirus 11. The experiment in a line: Infectivity of viral progeny (CPE on fresh cells). Conditions: 25 µM, supernatants collected 10, 24, 48 h p.i.
Experimental: To directly quantify this effect, a plaque assay was performed on supernatants collected at 48 h p.i.

Broadly, the EC50 is the concentration needed to bring the measured effect to its halfway point. The cell viability is a read-out of living cells in per cent, often relative to untreated cells. By CC50 is commonly meant the concentration that lowers cell viability or growth by half.

Molecules are shown by their SMILES. Several values for one entry are separate records, joined by “and”; a condition that tells them apart may be missing. Equal values may be shown once. Where only a bound is given, the exact number is not on record here.

Experimental for VERO 76 cells: After 48 h of incubation, 20 µL of MTS reagent were added directly to each well and the plates were incubated according to the manufacturer’s protocol. The conversion of MTS into a soluble formazan product by metabolically active cells was quantified by measuring the absorbance at 490 nm. For data analysis, the optical density (OD) of each well was first corrected by subtracting the background OD (medium + MTS without cells). The percentage of cell viability was then calculated by comparing the corrected OD of treated samples with the mean corrected OD of untreated control cells (0 µM), which was set as 100% viability:Cell viability (%) = (OD_treated − OD_blank)/(mean OD_control − OD_blank) × 100
Two independent experiments were performed, each in triplicate (n = 6 per condition). Dose–response curves were generated and CC50 values were determined by nonlinear regression using GraphPad Prism software v. 8.0 (San Diego, CA, USA).

Regarding `O=P(O)(O)OC1CC(n2cnc3c(Cl)ncnc32)C2C(c3c4ccccc4c(Br)c4ccccc34)=NOC12` (stereo not shown) [4a], the “reduction in E11 infection / E11-induced CPE” value is 90% and 83.9% in the data set on Echovirus 11 [1] (25 µM, post-infection); 75% and 79.8% with Echovirus 11 [1] (50 µM, post-infection). Besides, it took 8.15 ± 1.4 µM to reach a half-maximal effect in the data set with Echovirus 11 [1] (EC50). Also, the “reduction in extracellular viral RNA” value amounted to 72% in the data set on Echovirus 11 [2] (25 µM) and 89% in the data set on Echovirus 11 [2] (50 µM). The entries for the “reduction in intracellular viral RNA levels” value in the data set with Echovirus 11 [3] (10 h p.i.) and in the data set on Echovirus 11 [3] (24 h p.i.) were 43% and 65%, respectively. The “drop in viral RNA levels in supernatant” value in the data set on Echovirus 11 [3] (24 h p.i.) is listed as 31%; with Echovirus 11 [3] (48 h p.i.) it was 91%. Besides, the “RdRp RNA levels in the supernatant” value in the data set on Echovirus 11 [4] was “significantly reduced”. In the data set with VERO 76 cells, this molecule gave a cell viability above 80%. In the data set on SARS-CoV-2 RdRp, the “anti-SARS-CoV-2 RdRp activity” value is “moderate anti-SARS-CoV-2 RdRp activity”. Besides, the “decrease of infectious viral titer (PFU/mL)” value with Echovirus 11 [5] was above 10 fold. Further, the “CPE in fresh VERO 76 cells exposed to supernatants of treated cultures” value in the data set on Echovirus 11 [6] is given as “markedly reduced CPE”.

Regarding `O=P(O)(O)OC1CC(n2cnc3c(Cl)ncnc32)C2ON=C(c3c4ccccc4c(Br)c4ccccc34)C12` (stereo not shown) [4b], the “reduction in E11 infection / E11-induced CPE” value in the data set on Echovirus 11 [1] (25 µM, post-infection) is listed as 58%. Moreover, the “reduction in E11 infection / E11-induced CPE” value in the data set on Echovirus 11 [1] (50 µM, post-infection) was 38%. Also, in the data set with Echovirus 11 [1], it took 40.5 ± 1.8 µM to reach a half-maximal effect (EC50). Besides, the “effect on viral RNA levels in supernatant” value with Echovirus 11 [2] (6.25–100 µM, MOI 0.025) is given as “did not markedly affect viral RNA levels”. Besides, in the data set with VERO 76 cells, the CC50 was determined as 93.7 µM and the cell viability is listed as ~ 77%. In addition, the “anti-SARS-CoV-2 RdRp activity” value in the data set on SARS-CoV-2 RdRp is on record as “moderate anti-SARS-CoV-2 RdRp activity”.

Consider `CCC(CC)COC(=O)[C@H](C)N[P@](=O)(OC[C@H]1O[C@@](C#N)(c2ccc3c(N)ncnn23)[C@H](O)[C@@H]1O)Oc1ccccc1` [RDV, Remdesivir, reference compound], for which, in the data set with Echovirus 11 [1] (6.25 to 25 µM, post-infection, MOI 0.025, VERO 76 cells), the “protection from E11-induced CPE” value is “robust and dose-dependent protection from E11-induced CPE”.
